The text below walks through data of publication PMC7539557 (ACS infectious diseases, 2020).

Values joined by “and” are separate entries in the source; they are usually repeats but may differ in a detail not shown here. Identical values can stand only once. “Also recorded” adds a separate entry of the source. Like-named read-outs stand apart in the source and are kept apart here.

Series [1] deals with MHV-A59. It is filed as cell-based, Murine hepatitis virus. To be noted: for IC50: DFMO pretreatment 4 days, CPX, DEF, GC7 24h.
The test system of the next series is MERS-CoV. To be noted: in vitro, dose of 500 μM; cited from earlier work.
The subject of a further series is SARS-CoV-2. It is filed as cell-based. To be noted: 5 mM DFMO, Vero-E6, MOI 0.1, 24 hpi.
For series [2], the system named is MHV. The experiment in a line: Direct incubation of MHV with compound, then titering. Details: species or system Murine hepatitis virus. To be noted: 10 μM for 24h, then titered.
For a further series, the system named is HCoV-NL63. Nature of the series: HCoV-NL63 qPCR-based attachment assay on Vero-E6 cells. It is filed as cell-based. To be noted: DFMO-treated Vero-E6 cells. Background: Quantitative PCR measures a nucleic acid by following its amplification.
A further series concerns cellular polyamines. The experiment in a line: Thin-layer chromatography of cell-associated polyamines. It is filed as cell-based.
The subject of series [3] is MHV-A59. Nature of the series: Plaque size measurement with DFMO applied at time of infection. It is filed as cell-based, Murine hepatitis virus.
For series [4], the system named is MHV. Nature of the series: MHV attachment assays. It is filed as cell-based, Murine hepatitis virus.
In series [5] the test system is MHV-A59. It counts as cell-based, Murine hepatitis virus.
Series [6] deals with SARS-CoV-2 pseudoparticles. It is filed as cell-based. To be noted: DFMO-treated Vero-E6 cells.

Turning to `Cc1cc(C2CCCCC2)n(O)c(=O)c1` [CPX, ciclopirox], the MHV replication entry in the series with MHV-A59 [1] is recorded as “significantly reduced MHV replication in a dose-dependent manner”. Besides, the “cytotoxicity” value in the series on BHK-R cells is on record as “cytotoxicity was minimal”.
On to `Cc1c(O)c(=O)ccn1C` [DEF, deferiprone], for which, in the series with MHV-A59 [1], the MHV replication entry was “significantly reduced MHV replication in a dose-dependent manner”. Besides, the “cytotoxicity” value in the series on BHK-R cells is recorded as “cytotoxicity was minimal”.
As to `NCCCC(N)(C(=O)O)C(F)F` (stereo not shown) [DFMO, difluoromethylornithine], the “sensitivity of MERS-CoV” value in the series with MERS-CoV was “sensitive”. Also, the “reduction of SARS-CoV-2 genomes” value with SARS-CoV-2 is on record as “greater than 50 fold”. Besides, the “infectivity of MHV after direct incubation” value (shortened to “infectivity of MHV”) in the series on MHV [2] was “titers were unchanged”. Also, in the series on HCoV-NL63, the HCoV-NL63 attachment result was “attachment was sensitive to DFMO treatment”. In the series with MHV-A59 [1], the “MHV genome levels in supernatant (qPCR)” value is “reduced genome levels”, the “MHV production after repeated versus single dosing” value is “repeated dosing is as effective as a single drug treatment”, the “MHV titers over several rounds of replication” value is given as “reduced viral titers compared to no treatment group up to 72 h” and the “antiviral effect after drug removal” value is on record as “completely reversed”. Further, in the series on MHV-A59 [1], the “specific infectivity (genomes per PFU)” value is listed as “increased the ratio of genomes to titer” and the half-maximal inhibitory concentration (IC50) (commonly the concentration that gives 50% inhibition) was 380 µM. Besides, the “polyamine levels by TLC” value in the series on cellular polyamines (BHK-R cells) was “depleted polyamines”. Moreover, in the series on cellular polyamines (HeLa-R cells, DENSpm at 10 μM), the “polyamine levels by TLC” value is on record as “reduced polyamines”. Also, in the series on cellular polyamines (Vero-E6 cells, 750 μM to 5 mM DFMO), the “polyamine levels by TLC” value is on record as “successfully depleted polyamines”. Also, the plaque size entry in the series on MHV-A59 [3] (BHK-R cells, DFMO in overlay media at time of infection) is “no changes in plaque size”. Moreover, the plaque area entry with MHV-A59 [3] (HeLa-R cells, DFMO at time of infection) is “small, though statistically insignificant change”. In the series with MHV [4], the “attachment and plaque formation” value was “significantly inhibited”; the “bound viral genomes (qRT-PCR)” value is given as “significantly reduced”. The 50% inhibitory concentration (IC50) in the series with MHV-A59 [5] is ~7 µM and 7 µM. The “toxicity” value in the series with HeLa-R cells was “not toxic to these cells”. Besides, the “cellular attachment of SARS-CoV-2 pseudoparticles” value in series [6] is given as “reduction in cellular attachment of SARS-CoV-2 pseudoparticles in a dose-dependent manner”.
With `NCCCCCCCN=C(N)N` [GC7], in the series on MHV-A59 [1], the MHV replication result is listed as “significantly reduced MHV replication in a dose-dependent manner” and the IC50 amounted to 7.4 µM. Besides, in the series with BHK-R cells, the “cytotoxicity” value is given as “cytotoxicity was minimal”.
In the case of `NCCCCN` [putrescine], in the series on MHV [2], the “infectivity of MHV” value is given as “titers were unchanged”. For the same compound, in the series on MHV-A59 [1], the “effect of exogenous polyamine on MHV titers” value (shortened to “effect of exogenous polyamine”) is “modestly reduced viral titers” and the “rescue of MHV replication in DFMO-treated cells” value (shortened to “rescue of MHV replication”) is given as “rescued virus replication to untreated levels”.
Regarding `NCCCCNCCCN` [spermidine], the “infectivity of MHV” value with MHV [2] is given as “titers were unchanged”. In the series with MHV-A59 [1], the “effect of exogenous polyamine” value was “modestly reduced viral titers; also recorded: does not inhibit or restrict virus replication” and the “rescue of MHV replication” value was “rescued virus replication to untreated levels”.
On to `NCCCNCCCCNCCCN` [spermine], for which, in the series with MHV [2], the “infectivity of MHV” value was “titers were unchanged”. In addition, in the series on MHV-A59 [1], the “effect of exogenous polyamine” value is given as “modestly reduced viral titers; also recorded: reduces virus replication” and the “rescue of MHV replication” value is given as “rescued virus replication to untreated levels”. In addition, the “cytotoxicity” value with BHK-R cells is on record as “significant cytotoxicity”.
